Consider 99 compounds from ChEMBL document CHEMBL3507680, “University of Dundee, Gates Library screen for HepG2 cell viability”.

This series can be described thus: Human HepG2 cell viability assay in 384 well format. To be noted: HepG2 cells, read-out: Inhibition. Details: dose 125 nL, time 70.5 hour; concentration not given beside the values. The format is toxicity, cell-based.
As to `Cc1nc([C@H]2C[C@@H]3CCN(C(=O)c4ccnnc4)C[C@H]3O2)sc1C`, the cytotoxicity at 70.5 h is -0.727%.
Turning to `COCCN1C(=O)CCC12CCCN(c1ncc(F)cn1)CC2` (centres undefined), the cytotoxicity at 70.5 h came to 1.58%.
The figure for `CCC1=N[C@@]2(CC[C@@H]3CN(S(=O)(=O)CC)C[C@@H]32)C(=O)N1CCOC` is -2.77%; for `COCC1CN(C(=O)c2cccn2C)Cc2cnn(C)c21` (centres undefined) it is -0.85%.
The result for `Cn1cnc2c1C(COCC1CC1)CN(C(=O)c1cccs1)C2` (centres undefined) reads 8.88%; that for `Cn1cnc2c1C(COCC1CC1)CN(C(=O)c1ccsc1)C2` (centres undefined), 6.4%.
The figure for `O=C(Cc1ccccn1)N1CCn2cc(Cn3cncn3)nc2C1` is 0.952%.
`Cc1ccc(CN2C[C@@H](c3ccccc3)[C@@]3(CCNC3=O)C2)o1`: the cytotoxicity at 70.5 h was 2.86%.
In the case of `CCS(=O)(=O)N1CCc2cc(C(=O)NC)c(N(C)C)nc2CC1`, the cytotoxicity at 70.5 h came out at 5.95%.
The result for `O=C(NCCC(O)c1ccccc1)c1ccco1` (centres undefined) reads -8.79%; that for `O=C(CCn1nc(C(F)(F)F)c(Br)c1C1CC1)NN1CCOCC1`, -4.82%.
The result for `Cc1nn(C)c(C)c1C(=O)NN1CCOCC1` reads -6.78%.
The figure for `CS(=O)(=O)Nc1ccn(Cc2ccc(Cl)cc2)n1` is 10.5%.
As for `CCn1ccc(NC(=O)c2cc(C)on2)n1`, the cytotoxicity at 70.5 h is -8.5%.
The figure for `CC1CCC(NC(=O)c2nn(C)cc2I)CC1` (centres undefined) is -7.74%.
The result for `Cc1c(Cl)c(C(=O)NC(C)CN2CCOCC2)nn1C` (centres undefined) reads 6.43%; that for `Cc1nn(C)c(C)c1CN(C)C(=O)c1cc(C(F)(F)F)n(C)n1`, -5.06%.
The figure for `Cc1c(CN(C)C(=O)c2ccnn2C)cnn1C` is 6.18%; for `COC(=O)C1=C(C)N=C2SCC(=O)N2C1c1cn(C)nc1C` (centres undefined) it is -9.65%.
On to `CCn1ccc(CNC(=O)c2cc(OC)cc(OC)c2)n1`, for which the cytotoxicity at 70.5 h is -10.5%.
As to `CCn1cc(NC(=O)C(C)n2ncc(Cl)c2C)c(C(=O)NC)n1` (centres undefined), the cytotoxicity at 70.5 h is -3.34%.
The figure for `CCCNC(=O)c1nn(CC)cc1NC(=O)C(C)n1ncc(Cl)c1C` (centres undefined) is -5.37%; for `CCn1cc(NC(=O)C(C)n2ncc(Cl)c2C)c(C(=O)OC)n1` (centres undefined) it is -3.71%.
The result for `Cc1ccnn1CCCNC(=O)C1CCN(S(C)(=O)=O)CC1` reads -1.25%; that for `COc1cccc(Cn2cc(N3C(=O)CCC3=O)cn2)c1`, 3.42%.
The figure for `CCc1nnc(SCc2nonc2C)n1C1CC1` is -10.7%.
Take `CCn1cc(-c2nn3c(C(F)(F)F)nnc3s2)c(C)n1`: the cytotoxicity at 70.5 h is -3.8%.
The result for `Cc1cc(C(F)(F)F)nc(N2CCN3CCCC3C2)n1` (centres undefined) reads -10.5%; that for `Cc1ccc(-c2cc(C(F)(F)F)nc(N3CCOCC3)n2)s1`, -11.3%.
The result for `NC(=O)c1nc(-c2ccc(Cl)cc2Cl)oc1N` reads -3.66%; that for `CCn1cc(CN(C)S(=O)(=O)c2cnn(C)c2)cn1`, -6.45%; that for `CC(Cn1cccn1)NC(=O)c1cc(C2CC2)nc2c1cnn2C` (centres undefined), -9.86%.
The result for `CC(CNC(=O)c1cc(C2CC2)nc2c1cnn2C)Cn1cccn1` (centres undefined) reads -6.63%.
For `CCn1ncc2c(C(F)(F)F)cc(-c3cnn(C)c3)nc21`, the cytotoxicity at 70.5 h is -11.4%.
The result for `Nc1nnc(CCCn2nnc(-c3ccccc3F)n2)s1` reads -15.5%.
The figure for `Clc1ccc2[nH]c3c(c2c1)CCCC3c1nn[nH]n1` (centres undefined) is -6.09%.
The figure for `COc1ccc([C@@H]2NC(=O)N[C@H]3OCCC[C@H]32)cc1` is -4.38%.
Regarding `COc1c(C2SCC(=O)Nc3[nH]ncc32)cc2c(c1OC)OCO2` (centres undefined), the cytotoxicity at 70.5 h is -13.6%.
The figure for `O=C1CC(c2ccc(F)cc2)c2snc(C(=O)O)c2N1` (centres undefined) is -10.3%.
The figure for `COc1ccc(C2=NOC(C#N)C2)cc1` (centres undefined) is 8.47%; for `N#Cc1ccc(C2CC(=O)Nc3c(C(=O)O)nsc32)cc1` (centres undefined) it is -5.94%; for `CCc1ccccc1NC(=O)c1cnn(C)c1C` it is -7.12%.
The result for `COC(=O)Cn1ccc(=O)c2ccc(OC)cc21` reads 39.1%.
Consider `CCN(CC)C(=O)c1nnsc1-c1ccc(Cl)cc1`, for which the cytotoxicity at 70.5 h was -17.2%.
The result for `CS(=O)(=O)N1CCN(C(=O)c2cc(-c3cccs3)cs2)CC1` reads -5.33%; that for `CS(=O)(=O)N1CCN(C(=O)c2cc(-c3ccco3)cs2)CC1`, 0.0321%.
The result for `O=C(c1cc(-c2ccco2)cs1)N1CCOCC1` reads -0.411%; that for `O=C(NC1CC1)c1cc(Sc2ncccn2)ccn1`, -14.6%.
The figure for `Cc1cc(C(=O)Nc2cnn(CC(F)(F)F)c2)nc(N(C)C)n1` is -1.64%; for `Cc1ccc(C(=O)Nc2c(C(=O)N(C)C)nn(C)c2C)cc1` it is -4.31%.
With `Cc1c(NC(=O)c2ccc(Br)cc2)c(C(=O)N(C)C)nn1C`, the cytotoxicity at 70.5 h is -6.74%.
On to `COc1ccc(C(=O)Nc2c(C(=O)N(C)C)nn(C)c2C)cc1`, for which the cytotoxicity at 70.5 h was -6.56%.
Turning to `Cc1ccnn1C(C)C(=O)Nc1cc(-c2ccncc2)[nH]n1` (centres undefined), the cytotoxicity at 70.5 h was -6.01%.
The figure for `O=C(c1cc(-c2ccco2)cs1)N1CCCC1` is -16.3%; for `O=C1c2cnc(N3CCC(O)CC3)nc2CN1Cc1cccc(F)c1` it is 22%.
The result for `NC(=O)CN1CCOCC(Cc2cccc(F)c2)C1` (centres undefined) reads -12.7%; that for `NC(=O)CN1CCOCC(Cc2ccccc2Cl)C1` (centres undefined), -3.99%; that for `Cc1ccnc(C2(C)CCCN2C(=O)c2cnccn2)n1` (centres undefined), -10.4%.
The result for `CN(C)c1ncccc1CN1CCOC(C(=O)Nc2ccccc2)C1` (centres undefined) reads -7.2%.
In the case of `Cc1ccccc1CNC(=O)c1ccccc1-n1cc(CN)cn1`, the cytotoxicity at 70.5 h was -8.06%.
Turning to `CN(C)c1cc(C2CCCN2Cc2ccccc2OCC(=O)O)ccn1` (centres undefined), the cytotoxicity at 70.5 h is -6.83%.
The result for `O=C(c1ccno1)N1CCCC(c2ncncc2-c2ccncc2)C1` (centres undefined) reads -9.77%; that for `O=C(N1CCOCC1)N1CCCC(c2ncncc2-c2ccncc2)C1` (centres undefined), -9.55%; that for `Cc1cc(CN2CCC(C3Nc4ccccc4S(=O)(=O)N3)CC2)oc1C` (centres undefined), -3.27%.
In the case of `Cc1cc(-c2cnc(N3CCOCC3)nc2-c2cccnc2C)on1`, the cytotoxicity at 70.5 h was -4.33%.
Consider `Cc1cc(-c2cnc(N3CCNC(=O)C3)nc2-c2sccc2C)on1`, for which the cytotoxicity at 70.5 h is -6.64%.
With `CC(=O)N1CCCC(c2ccc(N3CCOCC3)cn2)C1` (centres undefined), the cytotoxicity at 70.5 h was -5.65%.
The figure for `COCC(=O)N1CCCCC1c1nccc(C)n1` (centres undefined) is 3.46%; for `CC(=O)N1CCCC(c2ccc(Br)cn2)C1` (centres undefined) it is -6.22%; for `CCN1CCCC(c2cc(Nc3cnccn3)nc(C)n2)C1` (centres undefined) it is -6.21%.
The figure for `O=C(C1CCC1)N1CCC(c2ncc3c(n2)CCNC3)CC1` is -6.1%; for `Cc1cc(C2CCCCCN2Cc2cn(C)nc2C)no1` (centres undefined) it is -6.86%.
The figure for `CN1CCc2nc(C3CCCCN3Cc3ccccc3Cl)ncc2C1` (centres undefined) is -4.18%.
Regarding `c1cnc(-c2cnc(N3CCCCC3)nc2C2CCCO2)cn1` (centres undefined), the cytotoxicity at 70.5 h is -5.56%.
The result for `O=C(c1cscn1)N1CCC(O)(Cn2ccc3ccncc32)CC1` reads -6.76%; that for `CCc1cc(C(=O)N2CCC(O)(Cn3ccc4ccncc43)CC2)no1`, -5.47%; that for `Cc1nc(C)c(C(=O)N2CCC(O)(Cn3ccc4ccncc43)CC2)s1`, 1.41%.
The result for `O=C(C1CCOCC1)N1CCC(O)(Cn2ccc3ccncc32)CC1` reads -6.06%; that for `CC(C)S(=O)(=O)N1CCC(c2cc3n(n2)[C@@H](C(F)(F)F)C[C@@H](C)N3)CC1`, -7.62%.
The figure for `Cc1ccc(S(=O)(=O)N2C[C@H]3C[C@H](NC(=O)c4cc(C)no4)[C@H]3C2)cc1` is -3.09%; for `Nc1cc(-c2cccs2)nn(CC(=O)NCC2CCCCC2)c1=O` it is -10%; for `CCN(Cc1ccccc1)C(=O)c1cc(C2CCCN2C)ccn1` (centres undefined) it is 10.8%.
For `COCC(=O)N1CCC(c2cc(C(F)(F)F)c3c(C)noc3n2)CC1`, the cytotoxicity at 70.5 h is 12.4%.
The figure for `Cc1cc(-c2cc(N)c(=O)n(CC(=O)NCC3CCCCC3)n2)c(C)o1` is 12.5%.
In the case of `Cc1ccc(S(=O)(=O)N2C[C@H]3C[C@H](NC(=O)C(C)C)[C@H]3C2)cc1`, the cytotoxicity at 70.5 h worked out at 20.3%.
The result for `Cc1ccc2c(c1)C(=O)NCC1(CCN(C(=O)c3ccccn3)CC1)O2` reads -7.17%; that for `Cc1ccc2c(c1)C(=O)NCC1(CCN(C(=O)c3cc(C)no3)CC1)O2`, -7.27%; that for `Cc1ccsc1CN1CCc2nc3ccsc3c(=O)n2CC1`, -4.51%.
The figure for `O=c1c2sccc2nc2n1CCN(Cc1ccccc1C(F)(F)F)CC2` is -10.4%.
The result for `O=c1c2sccc2nc2n1CCN(Cc1cc(F)ccc1F)CC2` reads -7.47%; that for `O=C(CCC1CCCC1)N1CCCC(c2ncc3c(n2)CCNC3)C1` (centres undefined), -1.37%.
Take `O=C(c1ccco1)N1C[C@@H]2[C@@H](C1)OCC(=O)N2Cc1cccnc1`: the cytotoxicity at 70.5 h came to 7.81%.
For the compound `O=S(=O)(C1CC1)N1C[C@H](Oc2ccccn2)[C@H]2OCCC[C@H]21`, the cytotoxicity at 70.5 h is -0.632%.
The result for `CN(C)S(=O)(=O)N1C[C@@H]2CN(Cc3ccoc3)CCO[C@@H]2C1` reads -4.48%.
The result for `Cc1noc([C@@H]2C[C@H]3CN(CC4CCOCC4)C[C@H]3O2)n1` reads 14.1%; that for `O=S(=O)(C1CC1)N1CCC[C@]2(C[C@@H](Oc3ccccn3)CO2)C1`, 14.1%; that for `CCOCC1CN(Cc2cccnc2OC)Cc2cnn(C)c21` (centres undefined), 2.89%.
The figure for `Cc1cc(C[C@@H]2COC[C@H]2NCc2ccc(C)c(C)c2)on1` is -7.12%; for `CC(C)c1ncc(CN2CCC(CO)C2)cn1` (centres undefined) it is -4.22%.
